From PubChem BioAssay AID1918949 (Molecular Pharmacology Branch, DTP, NCI, 2023)

Test system: K24384-001-R-PDC complex spheroid viability
Assay: Anticancer human tumor K24384-001-R-PDC patient-derived pancreatic adenocarcinoma cell line growth inhibition
Conditions: for IC50: curve of first compound; for viability, T/C: stronger effect = lower value
Procedure, shortened: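 Multicellular complex spheroids of tumor cells with human endothelial cells (HUVEC) and mesenchymal stem cells; the LSD1 inhibitor iadademstat was combined with standard-of-care or investigational agents. Top concentration at or near clinical Cmax, half-log dilutions; final DMSO ≤0.25%.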
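Also: spheroids exposed to agents for seven days before luminescence viability reading.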
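For viability, T/C in this document: 100% = DMSO vehicle control viability.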

CC1(C)CCC(CN2CCN(c3ccc(C(=O)NS(=O)(=O)c4ccc(NCC5CCOCC5)c([N+](=O)[O-])c4)c(Oc4cnc5[nH]ccc5c4)c3)CC2)=C(c2ccc(Cl)cc2)C1 + NC1CC1c1ccc(-c2cccc(O)c2)cc1
IC50 (second compound 0.1 µM): 3.35 µM | IC50 (second compound 0.316 µM): 2.6 µM | IC50 (second compound 1 µM): 2.68 µM | IC50 (second compound 3.16 µM): 2.69 µM | IC50 (second compound 10 µM): 1.95 µM | viability, T/C (second compound 0.1 µM, first compound 0.0316 µM): 90.7% | viability, T/C (second compound 0.1 µM, first compound 0.1 µM): 83.9% | viability, T/C (second compound 0.1 µM, first compound 0.316 µM): 88.3% | viability, T/C (second compound 0.1 µM, first compound 1 µM): 87.6% | viability, T/C (second compound 0.1 µM, first compound 3.16 µM): 52.6% | viability, T/C (second compound 0.1 µM, first compound 10 µM): 0.98% | viability, T/C (second compound 0.316 µM, first compound 0.0316 µM): 82.7% | viability, T/C (second compound 0.316 µM, first compound 0.1 µM): 76.7% | viability, T/C (second compound 0.316 µM, first compound 0.316 µM): 90% | viability, T/C (second compound 0.316 µM, first compound 1 µM): 80.4% | viability, T/C (second compound 0.316 µM, first compound 3.16 µM): 43.7% | viability, T/C (second compound 0.316 µM, first compound 10 µM): 1.07% | viability, T/C (second compound 1 µM, first compound 0.0316 µM): 91.5% | viability, T/C (second compound 1 µM, first compound 0.1 µM): 63.7% | viability, T/C (second compound 1 µM, first compound 0.316 µM): 63.8% | viability, T/C (second compound 1 µM, first compound 1 µM): 83.3% | viability, T/C (second compound 1 µM, first compound 3.16 µM): 45.7% | viability, T/C (second compound 1 µM, first compound 10 µM): 0.94% | viability, T/C (second compound 3.16 µM, first compound 0.0316 µM): 83.3% | viability, T/C (second compound 3.16 µM, first compound 0.1 µM): 93.2% | viability, T/C (second compound 3.16 µM, first compound 0.316 µM): 78.8% | viability, T/C (second compound 3.16 µM, first compound 1 µM): 71% | viability, T/C (second compound 3.16 µM, first compound 3.16 µM): 46.9% | viability, T/C (second compound 3.16 µM, first compound 10 µM): 0.99% | viability, T/C (second compound 10 µM, first compound 0.0316 µM): 86.3% | viability, T/C (second compound 10 µM, first compound 0.1 µM): 81.5% | viability, T/C (second compound 10 µM, first compound 0.316 µM): 67.9% | viability, T/C (second compound 10 µM, first compound 1 µM): 62.4% | viability, T/C (second compound 10 µM, first compound 3.16 µM): 44.4% | viability, T/C (second compound 10 µM, first compound 10 µM): 1%

CCN(c1cc(-c2ccc(CN3CCOCC3)cc2)cc(C(=O)NCc2c(C)cc(C)[nH]c2=O)c1C)C1CCOCC1 + NC1CC1c1ccc(-c2cccc(O)c2)cc1
IC50 (second compound 0.1 µM): > 3 µM | IC50 (second compound 0.316 µM): > 3 µM | IC50 (second compound 1 µM): > 3 µM | IC50 (second compound 3.16 µM): > 3 µM | IC50 (second compound 10 µM): > 3 µM | viability, T/C (second compound 0.1 µM, first compound 0.00949 µM): 113% | viability, T/C (second compound 0.1 µM, first compound 0.03 µM): 115% | viability, T/C (second compound 0.1 µM, first compound 0.0949 µM): 102% | viability, T/C (second compound 0.1 µM, first compound 0.3 µM): 103% | viability, T/C (second compound 0.1 µM, first compound 0.949 µM): 98.9% | viability, T/C (second compound 0.1 µM, first compound 3 µM): 62.8% | viability, T/C (second compound 0.316 µM, first compound 0.00949 µM): 113% | viability, T/C (second compound 0.316 µM, first compound 0.03 µM): 104% | viability, T/C (second compound 0.316 µM, first compound 0.0949 µM): 118% | viability, T/C (second compound 0.316 µM, first compound 0.3 µM): 103% | viability, T/C (second compound 0.316 µM, first compound 0.949 µM): 94.2% | viability, T/C (second compound 0.316 µM, first compound 3 µM): 71.8% | viability, T/C (second compound 1 µM, first compound 0.00949 µM): 100% | viability, T/C (second compound 1 µM, first compound 0.03 µM): 112% | viability, T/C (second compound 1 µM, first compound 0.0949 µM): 107% | viability, T/C (second compound 1 µM, first compound 0.3 µM): 95.8% | viability, T/C (second compound 1 µM, first compound 0.949 µM): 96.7% | viability, T/C (second compound 1 µM, first compound 3 µM): 65.5% | viability, T/C (second compound 3.16 µM, first compound 0.00949 µM): 109% | viability, T/C (second compound 3.16 µM, first compound 0.03 µM): 126% | viability, T/C (second compound 3.16 µM, first compound 0.0949 µM): 108% | viability, T/C (second compound 3.16 µM, first compound 0.3 µM): 111% | viability, T/C (second compound 3.16 µM, first compound 0.949 µM): 96.2% | viability, T/C (second compound 3.16 µM, first compound 3 µM): 69.7% | viability, T/C (second compound 10 µM, first compound 0.00949 µM): 127% | viability, T/C (second compound 10 µM, first compound 0.03 µM): 132% | viability, T/C (second compound 10 µM, first compound 0.0949 µM): 109% | viability, T/C (second compound 10 µM, first compound 0.3 µM): 127% | viability, T/C (second compound 10 µM, first compound 0.949 µM): 104% | viability, T/C (second compound 10 µM, first compound 3 µM): 77.6%
